# Experiment: Determination of the log P values by HPLC (formic acid method)
# Type: physicochemical
# Conditions: reversed-phase HPLC column (C 18), reversed-phase column (C 18), acidic range (pH 3.4), 55° C.
# Method: 1) Description of Method for Determination of the Log P Values (Formic Acid Method)
# Eluents for determination in the acidic range (pH 3.4):
# Eluent A: acetonitrile+1 ml of formic acid/liter. Eluent B: water+0.9 ml of formic acid/liter.
# The lambda max values were determined in the maxima of the chromatographic signals using the UV spectra from 200 nm to 400 nm.
row,Compound,chromatographic logP
1,"CC(=O)Nc1cc(F)c(-n2ccc(NC(=O)c3ccccc3C(F)(F)F)n2)c(F)c1 [Compound I-1-583, N-[1-(4-Acetamido-2,6-difluorophenyl)-1H-pyrazol-3-yl]-2-(trifluoromethyl)benzamide]",2.28
2,"CC(=O)c1cc(F)c(-n2ccc(NC(=O)c3ccccc3C(F)(F)F)n2)c(F)c1 [Compound I-1-584, N-[1-(4-Acetyl-2,6-difluorophenyl)-1H-pyrazol-3-yl]-2-(trifluoromethyl)benzamide]",2.7
3,"N#Cc1c(-n2ccc(NC(=O)c3ccccc3C(F)(F)F)n2)ccnc1Cl [Compound I-1-585, N-[1-(2-Chloro-3-cyanopyridin-4-yl)-1H-pyrazol-3-yl]-2-(trifluoromethyl)benzamide]",2.67
4,"N#Cc1c(Cl)ccnc1-n1ccc(NC(=O)c2ccccc2C(F)(F)F)n1 [Compound I-1-586, N-[1-(4-Chloro-3-cyanopyridin-2-yl)-1H-pyrazol-3-yl]-2-(trifluoromethyl)benzamide]",2.67
5,"N#Cc1cc(F)c(-n2ccc(NC(=O)c3ccccc3C(F)(F)F)n2)nc1Cl [Compound I-1-606, N-[1-(6-Chloro-5-cyano-3-fluoropyridin-2-yl)-1H-pyrazol-3-yl]-2-(trifluoromethyl)benzamide]",2.94
6,"N#Cc1ccc(Cl)nc1-n1ccc(NC(=O)c2ccccc2C(F)(F)F)n1 [Compound I-1-607, N-[1-(6-Chloro-3-cyanopyridin-2-yl)-1H-pyrazol-3-yl]-2-(trifluoromethyl)benzamide]",3.14
7,"N#Cc1ccc(-n2ccc(NC(=O)c3ccccc3C(F)(F)F)n2)nc1Cl [Compound I-1-608, N-[1-(6-Chloro-5-cyanopyridin-2-yl)-1H-pyrazol-3-yl]-2-(trifluoromethyl)benzamide]",3.17
8,"O=C(Nc1ccn(-c2nccc(-c3ccc(F)cc3)c2F)n1)c1ccccc1C(F)(F)F [Compound I-1-640, N-{1-[3-Fluoro-4-(4-fluorophenyl)pyridin-2-yl]-1H-pyrazol-3-yl}-2-(trifluoromethyl)benzamide]",3.4
9,"Nc1cc(F)c(-n2ccc(NC(=O)c3ccccc3C(=O)O)n2)c(F)c1 [Compound I-1-643, 2-{[1-(4-Amino-2,6-difluorophenyl)-1H-pyrazol-3-yl]carbamoyl}benzoic acid]",1.38

# Same assay, conditions: reversed-phase column (C 18), acidic range (pH 3.4), 55° C.
row,Compound,log P
1,O=C(Nc1ccn(-c2ncccc2F)n1)c1c(F)cccc1C(F)(F)F [Compound I-1-580],2.36
2,O=C(Nc1ccn(-c2ncccc2F)n1)c1ccsc1I [Compound I-1-581],2.30
3,O=C(Nc1ccn(-c2ncccc2F)n1)c1occc1I [Compound I-1-582],2.16
4,O=C(Nc1ccn(-c2ncc(Cl)cc2F)n1)c1ccccc1C(F)(F)F [Compound I-1-587],2.91
5,O=C(Nc1ccn(-c2ncc(Cl)cc2F)n1)c1c(F)cccc1F [Compound I-1-588],2.60
6,O=C(Nc1ccn(-c2ncc(Cl)cc2F)n1)c1ccccc1Br [Compound I-1-589],2.78
7,O=C(Nc1ccn(-c2ncc(Cl)cc2F)n1)c1ccccc1Cl [Compound I-1-590],2.74
8,O=C(Nc1ccn(-c2ncc(Cl)cc2F)n1)c1c(F)cccc1C(F)(F)F [Compound I-1-591],2.98
9,O=C(Nc1ccn(-c2ncc(Cl)cc2F)n1)c1ccsc1I [Compound I-1-592],2.99
10,O=C(Nc1ccn(-c2ncc(Cl)cc2F)n1)c1ccccc1I [Compound I-1-593],2.89
11,N#Cc1cncnc1-n1ccc(NC(=O)c2ccccc2C(F)(F)F)n1 [Compound I-1-594],2.34
12,N#Cc1cncnc1-n1ccc(NC(=O)c2c(F)cccc2F)n1 [Compound I-1-595],2.03
13,O=C(Nc1ccn(-c2ccc(F)cn2)n1)c1cccnc1C(F)(F)F [Compound I-1-597],2.32
14,O=C(Nc1ccn(-c2ccc(F)cn2)n1)c1ccccc1I [Compound I-1-599],2.78
15,O=C(Nc1ccn(-c2ncc(F)cn2)n1)c1ccccc1C(F)(F)F [Compound I-1-600],2.13
16,O=C(Nc1ccn(-c2ncc(F)cn2)n1)c1cccnc1C(F)(F)F [Compound I-1-601],1.73
17,O=C(Nc1ccn(-c2ncc(F)cn2)n1)c1c(F)cccc1F [Compound I-1-602],1.83
18,O=C(Nc1ccn(-c2ncc(F)cn2)n1)c1ccccc1Br [Compound I-1-603],1.94
19,O=C(Nc1ccn(-c2ncc(F)cn2)n1)c1ccccc1Cl [Compound I-1-604],1.91
20,O=C(Nc1ccn(-c2ncc(F)cn2)n1)c1ccccc1I [Compound I-1-605],2.05
21,O=C(Nc1ccn(-c2c(F)cccc2F)n1)c1ccccc1CC(F)(F)F [Compound I-1-610],3.00
22,O=C(Nc1ccn(-c2c(F)cccc2F)n1)C1=C(C(F)F)OCCS1 [Compound I-1-611],2.53

row,Compound,log P
1,O=C(Nc1ccn(-c2c(F)cccc2F)n1)c1ccccc1NC(=O)C(F)(F)F [Compound I-1-612],3.53
2,O=C(Nc1ccn(-c2c(F)cccc2F)n1)c1c(F)cccc1Br [Compound I-1-613],2.72
3,O=C(Nc1ccn(-c2c(F)cccc2F)n1)c1c(Cl)cccc1C(F)(F)F [Compound I-1-614],2.86
4,CC1=C(C(=O)Nc2ccn(-c3c(F)cccc3F)n2)OCCO1 [Compound I-1-615],2.42
5,CC1=C(C(=O)Nc2ccn(-c3c(F)cccc3F)n2)S(=O)(=O)CCO1 [Compound I-1-616],1.80
6,N#Cc1c(F)cccc1-n1ccc(NC(=O)c2ccccc2C(F)(F)F)n1 [Compound I-1-617],2.72
7,N#Cc1c(F)cccc1-n1ccc(NC(=O)c2cccnc2C(F)(F)F)n1 [Compound I-1-618],2.26
8,N#Cc1c(F)cccc1-n1ccc(NC(=O)c2c(F)cccc2F)n1 [Compound I-1-619],2.45
9,N#Cc1c(F)cccc1-n1ccc(NC(=O)c2ccccc2Br)n1 [Compound I-1-620],2.61
10,N#Cc1c(F)cccc1-n1ccc(NC(=O)c2ccccc2Cl)n1 [Compound I-1-621],2.57
11,N#Cc1c(F)cccc1-n1ccc(NC(=O)c2cccnc2Cl)n1 [Compound I-1-622],1.95
12,N#Cc1c(F)cccc1-n1ccc(NC(=O)c2c(F)cccc2C(F)(F)F)n1 [Compound I-1-623],2.68
13,N#Cc1c(F)cccc1-n1ccc(NC(=O)c2ccsc2I)n1 [Compound I-1-624],2.79
14,N#Cc1c(F)cccc1-n1ccc(NC(=O)c2ccccc2I)n1 [Compound I-1-625],2.63
15,N#Cc1cc(F)ccc1-n1ccc(NC(=O)c2ccccc2C(F)(F)F)n1 [Compound I-1-626],2.67
16,N#Cc1cc(F)ccc1-n1ccc(NC(=O)c2cccnc2C(F)(F)F)n1 [Compound I-1-627],2.21
17,N#Cc1cc(F)ccc1-n1ccc(NC(=O)c2c(F)cccc2F)n1 [Compound I-1-628],2.39
18,N#Cc1cc(F)ccc1-n1ccc(NC(=O)c2ccccc2Br)n1 [Compound I-1-629],2.55
19,N#Cc1cc(F)ccc1-n1ccc(NC(=O)c2ccccc2Cl)n1 [Compound I-1-630],2.52
20,N#Cc1cc(F)ccc1-n1ccc(NC(=O)c2cccnc2Cl)n1 [Compound I-1-631],1.91
21,N#Cc1cc(F)ccc1-n1ccc(NC(=O)c2c(F)cccc2C(F)(F)F)n1 [Compound I-1-632],2.64
22,N#Cc1cc(F)ccc1-n1ccc(NC(=O)c2ccsc2I)n1 [Compound I-1-633],2.73

row,Compound,log P
1,N#Cc1cc(F)ccc1-n1ccc(NC(=O)c2ccccc2I)n1 [Compound I-1-634],2.57
2,O=C(Nc1ccn(-c2ncc(F)cc2F)n1)c1ccccc1CC(F)(F)F [Compound I-1-635],2.80
3,O=C(Nc1ccn(-c2ncc(F)cc2F)n1)C1=C(C(F)F)OCCS1 [Compound I-1-636],2.31
4,O=C(Nc1ccn(-c2ncc(F)cc2F)n1)c1c(F)cccc1Br [Compound I-1-637],2.50
5,O=C(Nc1ccn(-c2ncc(F)cc2F)n1)c1c(Cl)cccc1C(F)(F)F [Compound I-1-638],2.70
6,CC1=C(C(=O)Nc2ccn(-c3ncc(F)cc3F)n2)OCCO1 [Compound I-1-639],2.16
7,O=C(Nc1ccn(-c2nccc(-c3ccc(F)cc3)c2F)n1)c1ccccc1C(F)(F)F [Compound I-1-642],3.40
8,Cn1cncc1C(=O)Nc1ccn(-c2c(F)cccc2F)n1 [Compound I-1-644],0.99
9,Cn1cccc1C(=O)Nc1ccn(-c2c(F)cccc2F)n1 [Compound I-1-645],2.41
10,Cn1cncc1C(=O)Nc1ccn(-c2ncc(F)cc2F)n1 [Compound I-1-646],0.70
11,Cn1cccc1C(=O)Nc1ccn(-c2ncc(F)cc2F)n1 [Compound I-1-647],2.16
12,O=C(Nc1cnn(-c2ccccc2Cl)n1)c1ccccc1I [Compound I-2-3],3.03
13,O=C(Nc1cnn(-c2ccccc2Cl)n1)c1cccnc1C(F)(F)F [Compound I-2-4],2.54
14,O=C(Nc1cnn(-c2ccccc2Cl)n1)c1cccnc1Cl [Compound I-2-5],2.20
15,O=C(Nc1cnn(-c2ccccc2Br)n1)c1ccccc1C(F)(F)F [Compound I-2-6],3.03
16,O=C(Nc1cnn(-c2ccccc2Br)n1)c1cccnc1C(F)(F)F [Compound I-2-8],2.58
17,O=C(Nc1cnn(-c2ccccc2Br)n1)c1cccnc1Cl [Compound I-2-9],2.29
18,O=C(Nc1nn(-c2ncccc2Cl)nc1Cl)c1ccccc1C(F)(F)F [Compound I-2-11],2.60
19,O=C(Nc1cnn(-c2ncccc2Cl)n1)c1ccccc1Cl [Compound I-2-12],2.22
20,O=C(Nc1cnn(-c2ncccc2Cl)n1)c1ccccc1Br [Compound I-2-13],2.26

# — patent publication US9802899B2, “Heterocyclic compounds as pesticides” (BAYER CROPSCIENCE AG, priority 2012, dated 2017)
